Values of other authors, collected in patent US10758465B2, “Synephrine compositions” (Follea International, priority 2017, dated 2020).

Assays:
alpha1-adrenoceptors = details: postjunctional alpha1-adrenoceptors
alpha2-adrenoceptors = details: postjunctional alpha2-adrenoceptors

**Q.** For `CNC[C@@H](O)c1ccc(O)cc1` [S-(+)-synephrine], which “potency relative to the (−) form” value (alpha1-adrenoceptors) is on record?
**A.** Its value is “one to two orders of magnitude less”.

**Q.** And the “potency relative to the (−) form” value (alpha2-adrenoceptors)?
**A.** Its value is “one to two orders of magnitude less”.
